Experimental data taken from patent US12617777B2, “GPR84 antagonists and uses thereof” (Liminal BioSciences Limited, priority 2021, dated 2026).

Biological target: T1, human GPR84 receptor (Homo sapiens, UniProt Q9NQS5)
T1 construct: host or cells: HEK293, transient transfection
Assay: Gαi biosensor BRET assay in HEK293 cells (antagonism of ZQ-16)
Assay type: cell-based
Conditions: for inhibition at 10 µM: HEK293, single concentration 10 μM (designated F); for inhibition at 25 µM: HEK293, single concentration 25 μM (designated I); for inhibition at 2 µM: HEK293, single concentration 2 μM (designated A); for IC50: HEK293 cells, antagonism of 200 nmol/L ZQ-16
How it was run: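 HEK293 cells transiently expressing human GPR84, Gαi2-Rluc8, GFP10-Gγ2 and Gβ1, in Tyrode's buffer pH 7.5. Compounds preincubated 5 min at 37° C, then 200 nmol/L ZQ-16 for 5 min at room temperature; coelenterazine 400A 5 μmol/L. BRET2 acceptor/donor ratio, background- and vehicle-corrected net BRET.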

T1 sequence (Q9NQS5 whole entry): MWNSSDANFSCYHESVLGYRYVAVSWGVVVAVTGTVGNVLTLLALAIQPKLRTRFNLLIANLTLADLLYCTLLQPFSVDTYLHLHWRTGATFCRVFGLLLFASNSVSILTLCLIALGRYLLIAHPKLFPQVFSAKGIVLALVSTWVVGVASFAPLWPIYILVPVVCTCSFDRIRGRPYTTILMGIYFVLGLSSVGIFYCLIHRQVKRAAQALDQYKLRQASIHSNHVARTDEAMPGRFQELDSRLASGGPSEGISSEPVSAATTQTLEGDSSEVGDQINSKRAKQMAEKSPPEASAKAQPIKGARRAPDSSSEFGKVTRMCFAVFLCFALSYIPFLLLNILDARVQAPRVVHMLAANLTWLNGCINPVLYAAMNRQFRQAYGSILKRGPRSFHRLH

SMILES | inhibition at 10 µM | other results
Cc1cc(C2CCCN(Cc3ccccn3)C2)ccc1-c1cn(CC2CCCCO2)nn1 (stereo not drawn) [Compound I-546] | 50 to 75% | 
C(#CC1CC1)c1ccc(-c2cn(CCOCC3CCCCO3)nn2)cc1 (stereo not drawn) [Compound I-83] |  | inhibition at 25 µM: 25 to 50%
O=S1(=O)CCC(Cn2cc(-c3ccc(C#CC4CC4)cc3)nn2)CC1 [Compound I-56] |  | inhibition at 25 µM: ≤ 25%
Cc1cc(N2CCN([C@H](C)c3ccccn3)CC2)ccc1-c1cn(CC2OCC(C)(C)CO2)nn1 [Compound I-715] | > 75% | 
Cc1cc(C2CCN(Cc3ccccn3)CC2)cnc1Cc1cn(CC2CCCCO2)nn1 (stereo not drawn) [Compound I-504] | ≤ 25% | 
CCc1cc(C#CCN(C)C2CC2)ccc1-c1cn(CC2OCC(C)(C)CO2)nn1 [Compound I-857] | ≤ 25% | 
CC(C)Oc1cc(N2CC(C)(CO)C2)ccc1-c1cn(CC2CC(C)(C)O2)nn1 (stereo not drawn) [Compound I-677] |  | inhibition at 2 µM: > 75%; IC50: ≤ 300 nM
CN(C)c1cc(N2CC3(COC3)C2)ccc1-c1cn(CC2OCC(C)(C)CO2)nn1 [Compound I-756] | > 75% | IC50: 300 to 1000 nM
Cc1cc(C#CCNc2ccccc2)ccc1-c1cn(CC2CCCO2)nn1 (stereo not drawn) [Compound I-62] | > 75% | IC50: > 3000 nM
CCn1cc(-c2ccc(-c3cn(CC4CCCCO4)nn3)c(C)c2)cn1 (stereo not drawn) [Compound I-194] | ≤ 25% | 
CC(C)Oc1cc(C#CCNc2ccccc2)cnc1-c1cn(CC2CC(C)(C)CO2)nn1 (stereo not drawn) [Compound I-526] | 50 to 75% | IC50: ≤ 300 nM
Cc1cc(C#CCn2cc(-c3ccc(N(C)C)cc3)nn2)cnc1-c1cn(CC2OCC(C)(C)CO2)nn1 [Compound I-668] |  | inhibition at 2 µM: > 75%; IC50: ≤ 300 nM
Cc1cc(N2CC(C)(CO)C2)cnc1-c1cn(CC2Oc3ccccc3O2)nn1 [Compound I-628] | > 75% | 
CN(C)c1cc(C#CCN2CC(C)(C)C2)c(F)cc1-c1cn(CC2OCC3(CCC3)O2)nn1 (stereo not drawn) [Compound I-821] | > 75% | 
CC(C)c1cc(C#CCN2CC(C)(C)C2)cnc1-c1cn(CC2OCC(C)(C)CO2)nn1 [Compound I-727] |  | inhibition at 2 µM: > 75%; IC50: 300 to 1000 nM
Cc1cc(N2CC(C)(F)C2)ccc1-c1cn(CC2CCCCO2)nn1 (stereo not drawn) [Compound I-519] | 25 to 50% | 
Cc1cc(C#CCO)ccc1-c1cn(CC2OCC(F)(F)CO2)nn1 [Compound I-692] | 50 to 75% | 
Cc1cc(N2CCN(C(C)c3ccccn3)CC2)ccc1-c1cn(CC2OCC(C)(C)CO2)nn1 (stereo not drawn) [Compound I-691] | > 75% | IC50: 300 to 1000 nM
Cc1cc(C#CC(C)O)ccc1-c1cn(CC2CCCCO2)nn1 (stereo not drawn) [Compound I-78] |  | IC50: 1000 to 3000 nM

SMILES | inhibition at 10 µM | other results
Cc1cc(C#CC2CC2)ccc1-c1cnn(CC2CCCCO2)c1C (stereo not drawn) [Compound I-327] | ≤ 25% | 
Cc1cc(OCc2ccccc2)ccc1-c1cn(CC2CCCCO2)nn1 (stereo not drawn) [Compound I-52] |  | inhibition at 25 µM: ≤ 25%
CN(C)c1cc(N2CC(C)(CO)C2)ccc1-c1cn(CC2CC3(CC3)CO2)nn1 (stereo not drawn) [Compound I-707] | > 75% | IC50: ≤ 300 nM
O=c1oc(CC2CCCCO2)nn1Cc1cccc(C#CC2CC2)c1 (stereo not drawn) [Compound I-18, 3-(3-(cyclopropylethynyl)benzyl)-5-((tetrahydro-2H-pyran-2-yl)methyl)-1,3,4-oxadiazol-2(3H)-one] | 50 to 75% | 
CC1(C)COC(Cn2cc(Oc3ccccc3)nn2)OC1 [Compound I-743, 1-((5,5-dimethyl-1,3-dioxan-2-yl)methyl)-4-phenoxy-1H-1,2,3-triazole] | ≤ 25% | 
CC1(CO)CN(c2cnc(-c3cn(CC4OCC5(CCC5)O4)nn3)c(Cl)c2)C1 (stereo not drawn) [Compound I-807] | > 75% | 
Cc1ccc(-c2ccc(-c3cn(CC4CCCCO4)nn3)cc2)cn1 (stereo not drawn) [Compound I-39] |  | inhibition at 25 µM: > 75%; IC50: > 3000 nM
C(#CC1CC1)c1ccc(-c2cn(CC3CCOCC3)nn2)cc1 [Compound I-40] |  | inhibition at 25 µM: 25 to 50%
CC1(C)CN(c2ccc(-c3cn(CC4CCCCO4)nn3)c(C(F)(F)F)c2)C1 (stereo not drawn) [Compound I-255] | 25 to 50% | 
CCN(CC)c1cc(N2CC(C)(CO)C2)c(F)cc1-c1cn(CC2OCC3(CC3)CO2)nn1 [Compound I-801] |  | inhibition at 2 µM: > 75%; IC50: ≤ 300 nM
Cc1cc(C#CCN2CC(C)(C)C2)cnc1-c1cn(Cc2ncccn2)nn1 [Compound I-473] | ≤ 25% | 
C(#CC1CC1)c1cnc(-c2cn(CC3OCC4(CC4)CO3)nn2)c(OC2CC2)c1 [Compound I-785] |  | inhibition at 2 µM: > 75%; IC50: ≤ 300 nM
Cc1cc(C#CCn2cc(C3CC3)nn2)cnc1-c1cn(CC2CCCCO2)nn1 (stereo not drawn) [Compound I-732] | ≤ 25% | 
Cc1cc(N2CC3(CN(Cc4ccccn4)C3)C2)ccc1-c1cn(CC2CCCCO2)nn1 (stereo not drawn) [Compound I-429] | 25 to 50% | 
COC(=O)N1CCC(c2ccc(-c3cn(CC4CCCCO4)nn3)c(C)c2)CC1 (stereo not drawn) [Compound I-484] | ≤ 25% | 
Cc1cc(N2CC3(CCN(C)C3)C2)ccc1-c1cn(CC2CCCCO2)nn1 (stereo not drawn) [Compound I-168] | ≤ 25% | 
Cc1cc(N2CCC(O)CC2)ccc1-c1cn(CC2CCCCO2)nn1 (stereo not drawn) [Compound I-449] | 25 to 50% | 
Cc1cc(N2CC(C)(C)C2)cnc1-c1cn(CC2OCC(C)(C)CO2)cn1 [Compound I-726] | > 75% | 
Cc1cc(N2CCN(C)CC2)ccc1-c1cn(C[C@H]2CCCCO2)nn1 [Compound I-111] | ≤ 25% | 

SMILES | inhibition at 10 µM | other results
CN(C)CC#Cc1ccc(-c2cn(CC3CCCCO3)nn2)cc1 (stereo not drawn) [Compound I-47] |  | inhibition at 25 µM: ≤ 25%
CC1(C)COC(Cn2cc(-c3ncc(C#CCNCc4ccccn4)cc3OC3CC3)nn2)OC1 [Compound I-772] |  | IC50: ≤ 300 nM
C(#CC1CC1)c1ccc(-c2cn(C[C@H]3CCCO3)nn2)cc1 [Compound I-27] |  | inhibition at 25 µM: 25 to 50%; IC50: > 3000 nM
Cc1cc(C(=O)n2ccc(N)n2)ccc1-c1cn(CC2CCCCO2)nn1 (stereo not drawn) [Compound I-438] | 25 to 50% | 
Cc1cc(C#CCn2cc(-c3ccccc3)nn2)cnc1-c1cn(CC2CCCCO2)nn1 (stereo not drawn) [Compound I-720] | > 75% | IC50: 300 to 1000 nM
CC1(C)COC(Cn2cc(-c3ccc(N4CCN(Cc5ccccn5)CC4)cc3CC(F)(F)F)nn2)OC1 [Compound I-747] |  | inhibition at 2 µM: > 75%; IC50: ≤ 300 nM
CCc1cc(C#CCOC2CC2)ccc1-c1cn(CC2OCC(C)(C)CO2)nn1 [Compound I-780] | > 75% | IC50: 300 to 1000 nM
C(#CC1CC1)c1ccc(-c2cn(C[C@H]3COCCO3)nn2)cc1 [Compound I-22] |  | inhibition at 25 µM: ≤ 25%
CC(C)Oc1cc(C#CCN2CC(C)(C)C2)cnc1-c1cn(CC2OCC(C)(C)CO2)nn1 [Compound I-676] |  | inhibition at 2 µM: > 75%; IC50: ≤ 300 nM
c1ccc(COc2ccc3c(c2)CCc2cnn(CC4CCCCO4)c2-3)cc1 (stereo not drawn) [Compound I-331] | ≤ 25% | 
COC1CCN(c2ccc(-c3cn(CC4CCCCO4)nn3)c(C)c2)C1 (stereo not drawn) [Compound I-463] |  | inhibition at 2 µM: ≤ 25%
Cc1ccc(C(C)(C)O)cc1N(C)c1cn(CC2OCC(C)(C)CO2)nn1 [Compound I-830] | 50 to 75% | 
CC(C)C#Cc1ccc(-c2cn(CC3CCCCO3)nn2)cc1 (stereo not drawn) [Compound I-57] |  | inhibition at 25 µM: ≤ 25%
Cc1ccccc1C#Cc1cn(CC2OCC(C)(C)CO2)nn1 [Compound I-791] |  | inhibition at 2 µM: > 75%
Cc1c(C#CC2CC2)cccc1-c1nnn(CC2CCCCO2)n1 (stereo not drawn) [Compound I-8] |  | inhibition at 25 µM: ≤ 25%
FC(F)(F)COc1cc(C#CC2CC2)cnc1-c1cn(CC2OCC3(CCC3)O2)nn1 (stereo not drawn) [Compound I-815] |  | inhibition at 2 µM: > 75%
Cc1cc(C2CC2)cnc1-c1cn(CC2OCC(C)(C)CO2)nn1 [Compound I-871] | 25 to 50% | 
Cc1cc(N2CC(C)C2)ccc1-c1cn(CC2CCCCO2)nn1 (stereo not drawn) [Compound I-264] | 50 to 75% | 
Cc1cc(N2CC(C)(CO)C2)ccc1-c1cn(CC2OCC(C)(C)O2)nn1 (stereo not drawn) [Compound I-626] | 25 to 50% | 

Continued, in another order:

inhibition at 10 µM | SMILES | other results
25 to 50% | Cc1cc(C#CC2CC2)ccc1-c1cn(Cc2ccccn2)nn1 [Compound I-312] | 
50 to 75% | CNCc1cc(C#CC2CC2)ccc1-c1cn(CC2CCCCO2)nn1 (stereo not drawn) [Compound I-355] | 
25 to 50% | CC(O)(c1cccc(C#CC2CC2)c1)c1cn(CC2CCCCO2)nn1 (stereo not drawn) [Compound I-496] | 
≤ 25% | Cc1cc(C#CC2CC2)ccc1-c1cn(CC2CC(C)(C)CCO2)nn1 (stereo not drawn) [Compound I-599] | 
> 75% | CCOC(c1cn(CC2CCCCO2)nn1)c1cc(C#CC2CC2)ccc1C (stereo not drawn) [Compound I-594] | IC50: ≤ 300 nM
> 75% | Cc1ccc(C#CC2CC2)cc1C1(c2cn(CC3CCCCO3)nn2)CC1 (stereo not drawn) [Compound I-679, 4-(1-(5-(cyclopropylethynyl)-2-methylphenyl)cyclopropyl)-1-((tetrahydro-2H-pyran-2-yl)methyl)-1H-1,2,3-triazole] | 
25 to 50% | COC(C)Cn1cc(-c2ccc(C#CC3CC3)cc2C)nn1 (stereo not drawn) [Compound I-132] | 
25 to 50% | Cc1cc(C#CC2CC2)cnc1-c1cn(CC2CCCO2)nn1 (stereo not drawn) [Compound I-204] | 
50 to 75% | Cc1cc(C#CC2CC2)ccc1-c1cn(CC2CCCCS2)nn1 (stereo not drawn) [Compound I-258] | 
≤ 25% | C[S+]([O-])c1cc(C#CC2CC2)ccc1-c1cn(CC2CCCCO2)nn1 (stereo not drawn) [Compound I-218] | 
> 75% | COC(c1cn(CC2CC(C)(C)CO2)nn1)c1cc(C#CC2CC2)ccc1C (stereo not drawn) [Compound I-642] | IC50: 1000 to 3000 nM
25 to 50% | COc1cc(C#CC2CC2)ccc1-c1cn(CC2CCCCO2)nn1 (stereo not drawn) [Compound I-82] | IC50: > 3000 nM
50 to 75% | COCc1cc(C#CC2CC2)ccc1-c1cn(CC2CCCCO2)nn1 (stereo not drawn) [Compound I-206] | 
≤ 25% | Cc1c(C(C)c2cccc(C#CC3CC3)c2)nnn1CC1CCCCO1 (stereo not drawn) [Compound I-624] | 
